We go through 32 molecules from patent publication US20100292255A1, “Therapeutic Compounds and Their Use in Treating Diseases and Disorders” (Myriad Pharmaceuticals, Inc., priority 2007, published 2010).

Structures are written as SMILES. pIC50: −log10 of the molar value.

The first test concerns T1, purified human Hsp90.
T1 construct: purified human Hsp90 (Stressgen, SPP-770)
Briefly: Hsp90 binding assay: displacement of BODIPY-labeled geldanamycin measured by fluorescence polarization. As to conditions: 5 μM compound; BODIPY-GM 10 nM, Hsp90 30 nM, overnight at room temperature. Summed up: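 Fluorescence polarization measured displacement of BODIPY-geldanamycin (10 nM) from purified human Hsp90 (30 nM). The buffer was HEPES-KOH pH 7.3 with molybdate, NP-40, gamma globulin and DTT, 2% DMSO, overnight at room temperature, ex/em 485/530 nm. % inhibition was calculated against DMSO controls, and points confounded by compound fluorescence were excluded.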
For `CCC(=O)N1CCC(CCn2cnc(N)c3nc(Sc4cc5c(cc4C#N)C(=O)CC5)nc2-3)CC1` [compound 74, 6-({6-Amino-3-[2-(1-propionylpiperidin-4-yl)ethyl]-3H-purin-8-yl}thio)-3-oxoindane-5-carbonitrile], the “GM displacement from purified Hsp90 measured by FP Inhibition by 5 μM compd. (%)” value was 18.0%.
With `COc1ccc(OC(F)(F)F)c(Sc2nc3c(N)ncn(CCC4CCN(C=O)CC4)c-3n2)c1` [compound 78], the “GM displacement from purified Hsp90 measured by FP Inhibition by 5 μM compd. (%)” value was found to be 14.0%.
As for `COc1ccc(C#N)c(Sc2nc3c(N)ncn(CCC4CCN(C=O)CC4)c-3n2)c1` [compound 80], the “GM displacement from purified Hsp90 measured by FP Inhibition by 5 μM compd. (%)” value is 34.0%.
Regarding `CCCC(=O)N1CCC(CCn2cnc(N)c3nc(Sc4cc5c(cc4Br)OCCO5)nc2-3)CC1` [compound 83, 8-[(7-Bromo-2,3-dihydro-1,4-benzodioxin-6-yl)thio]-3-[2-(1-butyrylpiperidin-4-yl)ethyl]-3H-purin-6-amine], the “GM displacement from purified Hsp90 measured by FP Inhibition by 5 μM compd. (%)” value is listed as 19.0%.
With `Nc1ncn(CCC2CCN(C=O)CC2)c2nc(Sc3cc4c(cc3Br)CCC4)nc1-2` [compound 85], the “GM displacement from purified Hsp90 measured by FP Inhibition by 5 μM compd. (%)” value was determined as 35.0%.
Turning to `Nc1ncn(CCC2CCN(C=O)CC2)c2nc(Sc3cc4c(cc3Br)C(=O)CC4)nc1-2` [compound 87, 4-(2-{6-Amino-8-[(6-bromo-1-oxo-2,3-dihydro-1H-inden-5-yl)thio]-3H-purin-3-yl}ethyl)piperidine-l-carbaldehyde], the “GM displacement from purified Hsp90 measured by FP Inhibition by 5 μM compd. (%)” value is reported as 20.0%.
On to `Nc1ncn(CCC2CCN(C(=O)CO)CC2)c2nc(Sc3cc4c(cc3Br)OCCO4)nc1-2` [compound 91, 2-[4-(2-{6-Amino-8-[(7-bromo-2,3-dihydro-1,4-benzodioxin-6-yl)thio]-3H-purin-3-yl}ethyl)piperidin-1-yl]-2-oxoethanol], for which the “GM displacement from purified Hsp90 measured by FP Inhibition by 5 μM compd. (%)” value was determined as 32.0%.
Still for that read-out and setting: the value for `CC(C)(O)C(=O)N1CCC(CCn2cnc(N)c3nc(Sc4cc5c(cc4Br)OCCO5)nc2-3)CC1` [compound 93, l-[4-(2-{6-Amino-8-[(7-bromo-2,3-dihydro-1,4-benzodioxin-6-yl)thio]-3H-purin-3-yl}ethyl)piperidin-1-yl]-2-methyl-1-oxopropan-2-ol] was 53.0%; that for `COc1ccc(Br)c(Sc2nc3c(N)ncn(CCC4CCN(C(=O)CO)CC4)c-3n2)c1` [compound 94, 2-[4-(2-{6-Amino-8-[(2-bromo-5-methoxyphenyl)thio]-3H-purin-3-yl}ethyl)piperidin-1-yl]-2-oxoethanol] was 10.0%.
The same measure, in the same setting: as for `C[C@H](O)C(=O)N1CCC(CCn2cnc(N)c3nc(Sc4cc5c(cc4C#N)OCO5)nc2-3)CC1` [compound 96, 6-{[6-Amino-3-(2-{1-[(2S)-2-hydroxypropanoyl]piperidin-4-yl}ethyl)-3H-purin-8-yl]thio}-1,3-benzodioxole-5-carbonitrile], the figure is 13.0%; as for `C[C@H](O)C(=O)N1CCC(CCn2cnc(N)c3nc(Sc4cc5c(cc4C#N)OCCO5)nc2-3)CC1` [compound 100, 7-{[6-Amino-3-(2-{1-[(2S)-2-hydroxypropanoyl]piperidin-4-yl}ethyl)-3H-purin-8-yl]thio}-2,3-dihydro-1,4-benzodioxine-6-carbonitrile], 27.0%.
Take `COc1ccc(OC(F)(F)F)c(Sc2nc3c(N)ncn(CCC4CCN(C(=O)CO)CC4)c-3n2)c1` [compound 103, 2-{4-[2-(6-Amino-8-{[5-methoxy-2-(trifluoromethoxy)phenyl]thio}-3H-purin-3-yl)ethyl]piperidin-1-yl}-2-oxoethanol]: the “GM displacement from purified Hsp90 measured by FP Inhibition by 5 μM compd. (%)” value came out at 18.0%.
As for `COc1ccc(C#N)c(Sc2nc3c(N)ncn(CCC4CCN(C(=O)CO)CC4)c-3n2)c1` [compound 105, 2-({6-Amino-3-[2-(1-glycoloylpiperidin-4-yl)ethyl]-3H-purin-8-yl}thio)-4-methoxybenzonitrile], the “GM displacement from purified Hsp90 measured by FP Inhibition by 5 μM compd. (%)” value stood at 17.0%.
For `CC(C)(C)[C@H](O)C(=O)N1CCC(CCn2cnc(N)c3nc(Sc4cc5c(cc4Br)OCCO5)nc2-3)CC1` [compound 107, (2S)-1-[4-(2-{6-Amino-8-[(7-bromo-2,3-dihydro-1,4-benzodioxin-6-yl)thio]-3H-purin-3-yl}ethyl)piperidin-1-yl]-3,3-dimethyl-1-oxobutan-2-ol], the “GM displacement from purified Hsp90 measured by FP Inhibition by 5 μM compd. (%)” value is given as 59.0%.

Still in this test, the particulars now being: BODIPY-GM 10 nM, Hsp90 30 nM, overnight at room temperature; read-out: GM displacement from purified Hsp90 measured by FP IC 50.
Consider `CC(=O)N1CCC(CCn2c(Sc3cc4c(cc3CC#N)OCO4)nc3c(N)ncnc32)CC1` [compound 75, [6-({9-[2-(1-Acetylpiperidin-4-yl)ethyl]-6-amino-9H-purin-8-yl}thio)-1,3-benzodioxol-5-yl]acetonitrile], for which the pIC50 was 5.60.
In the case of `Nc1ncnc2c1nc(Sc1cc3c(cc1I)CCC3)n2CCC1CCN(C=O)CC1` [compound 76, 4-(2-{6-Amino-8-[(6-iodo-2,3-dihydro-1H-inden-5-yl)thio]-9H-purin-9-yl}ethyl)piperidine-l-carbaldehyde], the pIC50 was 7.15.
Turning to `COc1ccc(OC(F)(F)F)c(Sc2nc3c(N)ncnc3n2CCC2CCN(C=O)CC2)c1` [compound 77, 4-[2-(6-Amino-8-{[5-methoxy-2-(trifluoromethoxy)phenyl]thio}-9H-purin-9-yl)ethyl]piperidine-1-carbaldehyde], the pIC50 is 6.40.
In the case of `COc1ccc(C#N)c(Sc2nc3c(N)ncnc3n2CCC2CCN(C=O)CC2)c1` [compound 79], the pIC50 is 6.15.
For `CCCC(=O)N1CCC(CCn2c(Sc3cc4c(cc3Br)OCCO4)nc3c(N)ncnc32)CC1` [compound 81, 8-[(7-Bromo-2,3-dihydro-1,4-benzodioxin-6-yl)thio]-9-[2-(1-butyrylpiperidin-4-yl)ethyl]-9H-purin-6-amine], the pIC50 was 7.00.
The same measure, in the same setting: as for `CCCC(=O)N1CCC(CCn2c(Sc3cc4c(cc3Br)OCO4)nc3c(N)ncnc32)CC1` [compound 82, 8-[(6-Bromo-1,3-benzodioxol-5-yl)thio]-9-[2-(1-butyrylpiperidin-4-yl)ethyl]-9H-purin-6-amine], the figure is 6.53; as for `Nc1ncnc2c1nc(Sc1cc3c(cc1Br)CCC3)n2CCC1CCN(C=O)CC1` [compound 84], 7.70; as for `Nc1ncnc2c1nc(Sc1cc3c(cc1Br)C(=O)CC3)n2CCC1CCN(C=O)CC1` [compound 86, 4-(2{6-Amino-8-[(6-bromo-l-oxo-2,3-dihydro-1H-inden-5-yl)thio]-9H-purin-9-yl}ethyl)piperidine-1-carbaldehyde], 7.22.
On the same count and under the same terms, as for `C[C@H](O)C(=O)N1CCC(CCn2c(Sc3cc4c(cc3Br)OCCO4)nc3c(N)ncnc32)CC1` [compound 88, (2S)-1-[4-(2-{6-Amino-8-[(7-bromo-2,3-dihydro-1,4-benzodioxin-6-yl)thio]-9H-purin-9-yl}ethyl)piperidin-1-yl]-1-oxopropan-2-ol], the figure is 7.10; as for `Nc1ncnc2c1nc(Sc1cc3c(cc1Br)OCCO3)n2CCC1CCN(C(=O)CO)CC1` [compound 90, 2-[4-(2-{6-Amino-8-[(7-bromo-2,3-dihydro-1,4-benzodioxin-6-yl)thio]-9H-purin-9-yl}ethyl)piperidin-1-yl]-2-oxoethanol], 7.05; as for `CC(C)(O)C(=O)N1CCC(CCn2c(Sc3cc4c(cc3Br)OCCO4)nc3c(N)ncnc32)CC1` [compound 92, 1-[4-(2-{6-Amino-8-[(7-bromo-2,3-dihydro-1,4-benzodioxin-6-yl)thio]-9H-purin-9-yl}ethyl)piperidin-1-yl]-2-methyl-1-oxopropan-2-ol], 7.05.
On the same count and under the same terms, the value for `C[C@H](O)C(=O)N1CCC(CCn2c(Sc3cc4c(cc3C#N)OCO4)nc3c(N)ncnc32)CC1` [compound 95, 6-{[6-Amino-9-(2-{1-[(2S)-2-hydroxypropanoyl]piperidin-4-yl}ethyl)-9H-purin-8-yl]thio}-l,3-benzodioxole-5-carbonitrile] was 6.15; that for `N#Cc1cc2c(cc1Sc1nc3c(N)ncnc3n1CCC1CCN(C(=O)CO)CC1)OCO2` [compound 97, 6-({6-Amino-9-[2-(1-glycoloylpiperidin-4-yl)ethyl]-9H-purin-8-yl}thio)-1,3-benzodioxole-5-carbonitrile] was 6.46.
As to `C[C@H](O)C(=O)N1CCC(CCn2c(Sc3cc4c(cc3C#N)OCCO4)nc3c(N)ncnc32)CC1` [compound 99, 7-{[6-Amino-9-(2-{1-[(2S)-2-hydroxypropanoyl]piperidin-4-yl}ethyl)-9H-purin-8-yl]thio}-2,3-dihydro-1,4-benzodioxine-6-carbonitrile], the pIC50 is 6.31.
The same measure, in the same setting: as for `N#Cc1cc2c(cc1Sc1nc3c(N)ncnc3n1CCC1CCN(C(=O)CO)CC1)OCCO2` [compound 101, 7-({6-Amino-9-[2-(1-glycoloylpiperidin-4-yl)ethyl]-9H-purin-8-yl}thio)-2,3-dihydro-1,4-benzodioxine-6-carbonitrile], the figure is 6.70; as for `COc1ccc(OC(F)(F)F)c(Sc2nc3c(N)ncnc3n2CCC2CCN(C(=O)CO)CC2)c1` [compound 102, 2-{4-[2-(6-Amino-8-{[5-methoxy-2-(trifluoromethoxy)phenyl]thio}-9H-purin-9-yl)ethyl]piperidin-1-yl}-2-oxoethanol], 6.55; as for `COc1ccc(C#N)c(Sc2nc3c(N)ncnc3n2CCC2CCN(C(=O)CO)CC2)c1` [compound 104, 2-({6-Amino-9-[2-(1-glycoloylpiperidin-4-yl)ethyl]-9H-purin-8-yl}thio)-4-methoxybenzonitrile], 6.10.
Take `CC(C)(C)[C@H](O)C(=O)N1CCC(CCn2c(Sc3cc4c(cc3Br)OCCO4)nc3c(N)ncnc32)CC1` [compound 106, (2S)-1-[4-(2-{6-Amino-8-[(7-bromo-2,3-dihydro-1,4-benzodioxin-6-yl)thio]-9H-purin-9-yl}ethyl)piperidin-1-yl]-3,3-dimethyl-1-oxobutan-2-ol]: the pIC50 is 7.15.
